Test results taken from patent US3966824A, “P,P'-Disubstituted α-trichloromethylbenzylphenyl ethers” (University of Illinois Foundation, priority 1974, dated 1976).
Entries after “also recorded” stand apart in the source; their conditions may differ.

Assays:
[1] = tested on: mosquito larvae; test: Toxicity to mosquito larvae (general statement); conditions: in vivo
Method: (§1) The compounds of the present invention were tested for insecticidal activity by standard methods, and compared with the insecticidal activities of DDT and symmetrical analogs of DDT, such as methoxychlor. Toxicological methods for the determination of the topical LD50 values to adult female SNAIDM and PSR houseflies, Musca domestica L. and to Phormia regina, and LC50 values to clex pipiens quinquefas ciatus Say, and Anopheles albimanus Weid mosquitoes were described by Metcalf et al., 44 Bull. World Health Org. 363 (1971). The methods for evaluation of metabolism by mouse liver homogenate and by female RSP housefly and salt-marsh caterpillar larvae Estigmene acrea Drury, were described by Metcalf et al., 5 J. Environ. Sci. Tech. 709 (1971).

[2] = tested on: Phormia regina; test: Topical toxicity to Phormia regina, alone and with piperonyl butoxide; assay type: in vivo; conditions: for LD50: Phormia regina, alone; for LD50 / Topical LD50, Phormia regina, pb: topical; for Topical LD50, Phormia regina, pb: synergized with piperonyl butoxide (pb); for SR (synergistic ratio), Phormia regina: LD50 alone / LD50 synergized with piperonyl butoxide; for toxicity to Phormia: in vivo
Method: as §1
(§2) The synergistic ratios or SR values (LD50 alone/ LD50 synergized with piperonyl butoxide) shown in Table II indicate the role of the multifunction oxidase (MFO) in detoxifying the individual compounds. Since piperonyl butoxide serves to block the action of MFO, the synergized LD50 values express the intrinsic toxicity of the compounds. With the detoxifying action of MFO enzymes blocked, the intrinsic toxicity of the compounds can thus be measured.

[3] = tested on: Musca domestica Rsp; test: Topical toxicity to adult female Rsp (resistant) houseflies, alone and with piperonyl butoxide; assay type: in vivo, Musca domestica L.; conditions: for SR (synergistic ratio), Musca domestica Rsp: LD50 alone / LD50 synergized with piperonyl butoxide; for LD50: Musca domestica, alone; for LD50 / Topical LD50, Musca domestica Rsp, pb: Rsp strain, topical; for Topical LD50, Musca domestica Rsp, pb: synergized with piperonyl butoxide (pb)
Method: as §1, §2

[4] = tested on: Culex fatigans larvae; test: Toxicity to Culex mosquito larvae; assay type: in vivo
Method: as §1

[5] = tested on: Musca domestica SNAIDM; test: Topical toxicity to adult female SNAIDM (susceptible) houseflies, alone and with piperonyl butoxide; assay type: in vivo, Musca domestica L.; conditions: for SR (synergistic ratio), Musca domestica SNAIDM: LD50 alone / LD50 synergized with piperonyl butoxide; for LD50: Musca domestica, alone; for LD50 / Topical LD50, Musca domestica SNAIDM, pb: SNAIDM strain, topical; for Topical LD50, Musca domestica SNAIDM, pb: synergized with piperonyl butoxide (pb)
Method: as §1, §2

[6] = tested on: Anopheles albimanus larvae; test: Toxicity to Anopheles albimanus mosquito larvae; assay type: in vivo
Method: as §1

[7] = tested on: insects; conditions: relative to DDT where stated; cited from earlier work
[8] = tested on: multifunction oxidase (MFO) enzymes; conditions: cited from earlier work
[9] = tested on: animals; conditions: prior art; cited from earlier work
[10] = tested on: insects; test: General insecticidal activity (house flies, blow fly, mosquitoes and other insects); assay type: in vivo; conditions: comparison among the 9 ethers of Table II
Description: It has been found from metabolic studies on insects, and mice, using a model ecosystem and the methods described in Kapoor, et al., 18(6) J.Agr., Food Chem. 1145 (1970), Metcalf, et al., J. Environ. Sci. Technol. 709 (1971) and also in the copending application of Metcalf et al., "Insecticidal Biodegradable Analogues of DDT", Ser. No. 147,241, filed May 26, 1971, and having a common assignee with the present application, that certain p,p'-disubstituted α-trichloromethylbenzylphenyl ethers with various substituent groups are readily attacked by multifunction oxidase (MFO) enzymes, and thus are substantially biodegradable.
as §1

[11] = cited from earlier work

Row | SMILES | toxicity to mosquito larvae [1] | LD50 [2] [mg/kg] | Topical LD50, Phormia regina, pb [2] [μg per g] | SR (synergistic ratio), Musca domestica Rsp [3] | LD50 [3] [mg/kg] | Topical LD50, Musca domestica Rsp, pb [3] [μg per g] | LC50 Culex fatigans larvae [4] [ppm] | SR (synergistic ratio), Musca domestica SNAIDM [5] | LD50 [5] [mg/kg] | Topical LD50, Musca domestica SNAIDM, pb [5] [μg per g] | LC50 Anopheles albimanus larvae [6] [ppm] | SR (synergistic ratio), Phormia regina [2] | insecticidal activity of prior art compounds [7] | biodegradability / attack by MFO enzymes of prior art compounds [8] | accumulation in animal tissues [9] | toxicity to Phormia [2] | intrinsic toxicity / insecticidal effectiveness [10] | housefly LD50 ([5]; comparison among compounds of Table II) | lipid solubility [11] | water solubility [11]
1 | Clc1ccc(OC(c2ccc(Cl)cc2)C(Cl)(Cl)Cl)cc1 (stereo not drawn) [I, α-trichloromethyl-p-chlorobenzyl p-chlorophenyl ether] | the most toxic | > 250 | > 250 | > 3.6 | > 500 | 180 | 0.035 | 1.0 | 90 | 90 | 0.014 | – | – | – | – | – | – | – | – | –
2 | CCOc1ccc(C(Oc2ccc(C)cc2)C(Cl)(Cl)Cl)cc1 (stereo not shown) [VIII] | – | 46.2 | 30.0 | 2.9 | 65 | 22.0 | 0.18 | 3.5 | 72.5 | 20.5 | 0.066 | 1.5 | – | – | – | – | – | – | – | –
3 | COc1ccc(C(c2ccc(OC)cc2)C(Cl)(Cl)Cl)cc1 [methoxychlor, 1,1,1-trichloro-,2,2-bis(p-methoxyphenyl)ethane] | – | – | – | – | – | – | – | – | – | – | – | – | considerably less insecticidal activity than DDT towards other species of insects | readily attacked by MFO enzymes | not generally accumulated in animal tissues | – | – | – | – | –
4 | CCOc1ccc(C(Oc2ccc(Cl)cc2)C(Cl)(Cl)Cl)cc1 (stereo not drawn) [VI, α-trichloromethyl-p-ethoxybenzyl p-chlorophenyl ether] | only slightly less toxic | 31.2 | 31.2 | 2.5 | 31 | 12.5 | 0.067 | 1.9 | 18.5 | 9.5 | 0.044 | 1.0 | – | – | – | only slightly less toxic to Phormia than the p,p'-diethoxy compound IV | highest intrinsic toxicity; also recorded: most effective insecticide generally | lowest LD50 values to the housefly | – | –
5 | COc1ccc(C(Oc2ccc(Cl)cc2)C(Cl)(Cl)Cl)cc1 (stereo not shown) [V] | – | 205 | 115 | 1.6 | 130 | 82.5 | 0.14 | 6.3 | 108 | 17.0 | 0.038 | 1.8 | – | – | – | – | – | – | – | –
6 | Cc1ccc(OC(c2ccc(C)cc2)C(Cl)(Cl)Cl)cc1 (stereo not shown) [III] | – | 135 | 100 | > 3 | > 500 | 145 | 0.12 | 2.9 | 265 | 90 | 0.18 | 1.35 | – | – | – | – | – | – | – | –
7 | CCOc1ccc(OC(c2ccc(OCC)cc2)C(Cl)(Cl)Cl)cc1 (stereo not shown) [IV] | – | 16.5 | 16.5 | 1.7 | 42 | 24.5 | 0.11 | 2.1 | 27 | 13.0 | 0.07 | 1.0 | – | – | – | quite toxic to Phormia | highest intrinsic toxicity | – | – | –
8 | COc1ccc(C(Oc2ccc(C)cc2)C(Cl)(Cl)Cl)cc1 (stereo not shown) [IX] | – | > 250 | > 250 | > 4 | > 500 | 135 | 0.65 | > 13 | > 500 | 39.0 | > 1.0 | – | – | – | – | – | – | – | – | –
9 | Clc1ccc(C(c2ccc(Cl)cc2)C(Cl)(Cl)Cl)cc1 [DDT, 1,1, 1 trichloro-2,2-bis(p-chlorophenyl)ethane] | – | – | – | – | – | – | – | – | – | – | – | – | – | – | accumulation in the fatty or lipid tissues of animals | – | – | – | high lipid solubility | very low water solubility
10 | Clc1ccc(C(c2ccc(Cl)cc2)C(Cl)Cl)cc1 [DDD, 1,1-dichloro-2,2-bis(p-chlorophenyl)ethane] | – | – | – | – | – | – | – | – | – | – | – | – | – | do not function on DDT and its metabolic derivatives DDE and DDD (or TDE) | – | – | – | – | – | –
11 | ClC(Cl)=C(c1ccc(Cl)cc1)c1ccc(Cl)cc1 [DDE, 1,1-dichloro-2,2-bis(p-chlorophenyl) ethylene] | – | – | – | – | – | – | – | – | – | – | – | – | – | do not function on DDT and its metabolic derivatives DDE and DDD (or TDE) | – | – | – | – | – | –
12 | Cc1ccc(C(c2ccc(C)cc2)C(Cl)(Cl)Cl)cc1 [methylchlor, 1,1,1-trichloro-2,2-bis(p-methylphenyl)ethane] | – | – | – | – | – | – | – | – | – | – | – | – | considerably less insecticidal activity than DDT towards other species of insects | – | – | – | – | – | – | –
13 | CSc1ccc(C(c2ccc(SC)cc2)C(Cl)(Cl)Cl)cc1 [methiochlor, 1,1,1-trichloro-2,2-bis-(p-methiophenyl) ethane] | – | – | – | – | – | – | – | – | – | – | – | – | considerably less insecticidal activity than DDT towards other species of insects | readily attacked by MFO enzymes | – | – | – | – | – | –
14 | CCOc1ccc(C(Oc2ccc(OC)cc2)C(Cl)(Cl)Cl)cc1 (stereo not shown) [VII] | – | 30 | 16.0 | 6.4 | 90 | 14.0 | 0.14 | 9.0 | 45 | 5.0 | 0.034 | 1.9 | – | – | – | quite toxic to Phormia | highest intrinsic toxicity | – | – | –
